Data published in patent US4742047A, “Semi-synthetic peptide antibiotics” (Bristol-Myers Company, priority 1986, dated 1988).

Legend:
P388 leukemia = assay: Antitumor effect against in vivo murine transplantable P388 leukemia; set-up: species or system mice
Experimental: (§1) Antitumor activity of representative compounds of the present invention was determined using in vivo murine transplantable P388 leukemia and B16 melanoma models.
P388 leukemia: female CDF1 and male BDF1 mice were inoculated by intraperitoneal injection of 0.8 ml diluted ascitic fluid containing 10^6 cells.
(§2) Test materials were dissolved in 0.9% saline containing 10% dimethyl sulfoxide and graded doses of them were administered to mice intraperitoneally 24 hrs after tumor implantation. Two dosing schedules were used for the p388 leukemia experiment: once daily on day 1 through day 3 (QD 1→3); and once daily on day 1 through day 9 (QD 1→9). The QD 1→9 schedule was used for the B16 melanoma experiment.
(§3) Antitumor activity is evaluated as the increase in mediam survival time (MST) of treated (T) and control (C) animals for various dosage regimens expressed as a percentage ratio (T/C %=MST of treated.div.MST of control×100). For both in vivo P388 leukemia and in vivo B16 melanoma models, values for percentage ratios of 125 and above indicate significant antitumor effect.

B16 melanoma = assay: Antitumor effect against in vivo murine B16 melanoma; set-up: species or system mice; conditions: QD 1→9 ip
Experimental: as §1
B16 melanoma; male BDF1 mice were implanted with 0.5 ml of a 10% tumor brei intraperitoneally.
as §2, §3

ddy mice = conditions: single intraperitoneal administration
Experimental: The acute toxicity for compounds of Examples 1, 2, and 3 was determined in ddy mice by single intraperitoneal administration.

SMILES	MST (% T/C) (P388 leukemia; 1 mg/kg/day, QD 1→3 ip)	MST (% T/C) (P388 leukemia; 3 mg/kg/day, QD 1→3 ip)	MST (% T/C) (P388 leukemia; .3 mg/kg/day, QD 1→3 ip)	MST (% T/C) (P388 leukemia; 0.13 mg/kg/day, QD 1→9 ip)	MST (% T/C) (P388 leukemia; 0.25 mg/kg/day, QD 1→9 ip)	MST (% T/C) (P388 leukemia; 0.5 mg/kg/day, QD 1→9 ip)	MST (% T/C) (P388 leukemia; 0.63 mg/kg/day, QD 1→9 ip)	MST (% T/C) (P388 leukemia; 1 mg/kg/day, QD 1→9 ip)	MST (% T/C) (P388 leukemia; 2 mg/kg/day, QD 1→9 ip)	MST (% T/C) (B16 melanoma; 1 mg/kg/day)	MST (% T/C) (B16 melanoma; 2 mg/kg/day)	MST (% T/C) (B16 melanoma; .13 mg/kg/day)	MST (% T/C) (B16 melanoma; .25 mg/kg/day)	MST (% T/C) (B16 melanoma; .5 mg/kg/day)	MST (% T/C) (P388 leukemia; 4 mg/kg/day, QD 1→9 ip)	MST (% T/C) (P388 leukemia; 10 mg/kg/day, QD 1→3 ip)	MST (% T/C) (B16 melanoma; 4 mg/kg/day)	LD50 (ddy mice) [mg/kg]
CCCCCCCCC/C=C/C(=O)N[C@H](C(=O)NC1CC(O)CCNC(=O)/C=C/C(C)NC1=O)[C@@H](C)O (relative stereo) [Example 4, trans-2-Dodecenoyl-III]	132	118 % T/C	118															
CCCCCCCC=CC=CC(=O)NC(C(=O)NC1CC(O)CCNC(=O)C=CC(C)NC1=O)C(C)O (stereo not drawn) [BU-2867T A, reference compound]	145	Tox	130	130	150	155	110	190	Tox	116	Tox	97	100	113				
CCCCCC=CCCC=CC=CC(=O)NC(C(=O)NC1CC(O)CCNC(=O)C=CC(C)NC1=O)C(C)O (stereo not drawn) [BU-2867T B, reference compound]				125	130	145	130	170	180 % T/C	126	Tox	108	111	118	Tox			
CCCCCCCCCC=CC=CC(=O)NC(C(=O)NC1CC(O)CCNC(=O)C=CC(C)NC1=O)C(C)O (stereo not drawn) [BU-2867T C, reference compound]	124	129 % T/C		130	160	155	115	170	205 % T/C	113	132 % T/C	103	103	103	65 % T/C	57	Tox	
CCCCCCCCCCCC(=O)N[C@H](C(=O)NC1CC(O)CCNC(=O)/C=C/C(C)NC1=O)[C@@H](C)O (stereo partly drawn) [Example 1, n-Dodecanoyl-III]	130	145 % T/C		127	132	145		150	159 % T/C	121	139 % T/C		107	113	173 % T/C	155	155 % T/C	27
